In data set [1] the test system is Rattus norvegicus. Description: Antiosteoporotic activity in ovariectomized Sprague-Dawley rat assessed as serum osteocalcin level at 3 ug/kg, po qd at 12th week by enzyme immunoassay (reference value: 1055.8 +/- 14 ng/ml). It is filed as functional.
The nature of data set [2]: n-octanol-water partition coefficient, log P of the compound after 24 hrs by HPLC analysis. It counts as physicochemical.
Data set [3] deals with Rattus norvegicus. Description: Antiosteoporotic activity in ovariectomized Sprague-Dawley rat assessed as bone volume /tissue volume at 3 ug/kg, po qd at 12th week by micro-CT analysis (reference value: 31.61 +/- 2.39%). It is filed as functional.
Data set [4] deals with Rattus norvegicus. Description: Antiosteoporotic activity in ovariectomized Sprague-Dawley rat assessed as trabecular separation at 3 ug/kg, po qd at 6th week by micro-CT analysis (reference value: 0.116 +/- 0.010 millimeter). It is filed as functional, Trabecula.
Data set [5] concerns Rattus norvegicus. Kind of data set: Antiosteoporotic activity in ovariectomized Sprague-Dawley rat assessed as trabecular separation at 1 ug/kg, po qd at 6th week by micro-CT analysis (reference value: 0.116 +/- 0.010 millimeter). It is filed as functional, Trabecula.
Data set [6] deals with Rattus norvegicus. Description: Antiosteoporotic activity in ovariectomized Sprague-Dawley rat assessed as bone volume /tissue volume recovery at 10 ug/kg, po qd measured at 18th week by micro-CT analysis relative to SHAM control. It counts as functional.
The subject of data set [7] is Rattus norvegicus. Kind of data set: Antiosteoporotic activity in ovariectomized Sprague-Dawley rat assessed as trabecular separation at 10 ug/kg, po qd at 18th week by micro-CT analysis (reference value: 0.234 +/- 0.021 millimeter). It counts as functional, Trabecula.
The test system of data set [8] is Rattus norvegicus. Kind of data set: Antiosteoporotic activity in ovariectomized Sprague-Dawley rat assessed as trabecular separation at 1 ug/kg, po qd at 18th week by micro-CT analysis (reference value: 0.234 +/- 0.021 millimeter). It is filed as functional, Trabecula.
Data set [9] has as its system Rattus norvegicus. Description: Antiosteoporotic activity in ovariectomized Sprague-Dawley rat assessed as bone volume /tissue volume at 3 ug/kg, po qd at 18th week by micro-CT analysis (reference value: 27.36 +/- 1.99%). It counts as functional.
For data set [10], the system named is Rattus norvegicus. Description: Antiosteoporotic activity in ovariectomized Sprague-Dawley rat assessed as trabecular thickness recovery at 10 ug/kg, po qd measured at 18th week by micro-CT analysis relative to SHAM control. It counts as functional, Trabecula.
For data set [11], the system named is Rattus norvegicus. Description: Antiosteoporotic activity in ovariectomized Sprague-Dawley rat assessed as trabecular thickness at 3 ug/kg, po qd at 6th week by micro-CT analysis (reference value: 0.086 +/- 0.0069 millimeter). It counts as functional, Trabecula.
In data set [12] the test system is Rattus norvegicus. Kind of data set: Antiosteoporotic activity in ovariectomized Sprague-Dawley rat assessed as trabecular thickness at 10 ug/kg, po qd at 12th week by micro-CT analysis (reference value: 0.070 +/- 0.0063 millimeter). It counts as functional, Trabecula.
Data set [13] relates to Rattus norvegicus. Description: Antiosteoporotic activity in ovariectomized Sprague-Dawley rat assessed as bone volume /tissue volume at 10 ug/kg, po qd at 12th week by micro-CT analysis (reference value: 31.61 +/- 2.39%). It counts as functional.
Data set [14] concerns Rattus norvegicus. Description: Antiosteoporotic activity in ovariectomized Sprague-Dawley rat assessed as trabecular thickness at 1 ug/kg, po qd at 18th week by micro-CT analysis (reference value: 0.103 +/- 0.0044 millimeter). It is filed as functional, Trabecula.
In data set [15] the test system is Rattus norvegicus. Kind of data set: Antiosteoporotic activity in ovariectomized Sprague-Dawley rat assessed as trabecular separation at 1 ug/kg, po qd at 12th week by micro-CT analysis (reference value: 0.146 +/- 0.010 millimeter). It counts as functional, Trabecula.
Data set [16] deals with Rattus norvegicus. Description: Antiosteoporotic activity in ovariectomized Sprague-Dawley rat assessed as bone volume /tissue volume at 10 ug/kg, po qd at 6th week by micro-CT analysis (reference value: 41.33 +/- 5.04%). It is filed as functional.
The subject of data set [17] is Rattus norvegicus. Description: Antiosteoporotic activity in ovariectomized Sprague-Dawley rat assessed as trabecular separation recovery at 10 ug/kg, po qd measured at 18th week by micro-CT analysis relative to SHAM control. It counts as functional, organism-based. The settings on record: Trabecula.
Data set [18] relates to Rattus norvegicus. Description: Antiosteoporotic activity in ovariectomized Sprague-Dawley rat assessed as serum osteocalcin level at 1 ug/kg, po qd at 12th week by enzyme immunoassay (reference value: 1055.8 +/- 14 ng/ml). It counts as functional.
Data set [19] relates to Rattus norvegicus. Description: Antiosteoporotic activity in ovariectomized Sprague-Dawley rat assessed as trabecular separation at 10 ug/kg, po qd at 12th week by micro-CT analysis (reference value: 0.146 +/- 0.010 millimeter). It counts as functional, Trabecula.

Here are results for one compound from ChEMBL document CHEMBL3616426 (Eur J Med Chem, 2015).

Activity calls are given as the source filed them. The calls are words filed in the database; no cut-off is given here.

Usually logP stands for a log measure of how a compound divides between an organic and an aqueous phase. Higher therefore signals a more lipophilic compound.

`O=C1c2cc(O)cc(O)c2[C@@H](c2ccc(O)cc2)[C@@H]1c1cc(O)cc(O)c1` [ISOPAUCIFLORAL F]: the Activity was 1109.6 ng/mL with Rattus norvegicus [1]; 41.01% with Rattus norvegicus [3]; 0.097 mm with Rattus norvegicus [4]; 0.104 mm with Rattus norvegicus [5]; 78% in the data set on Rattus norvegicus [6]; 0.096 mm in the data set on Rattus norvegicus [7]. In addition, the Activity in the data set with Rattus norvegicus [8] is recorded as 0.183 mm; in the data set on Rattus norvegicus [9] it was 36.45%; in the data set with Rattus norvegicus [10], 78%; with Rattus norvegicus [11] it was 0.092 mm; with Rattus norvegicus [12] it was 0.087 mm; in the data set on Rattus norvegicus [13], 38.43%. Further, the Activity in the data set on Rattus norvegicus [14] amounted to 0.106 mm; in the data set on Rattus norvegicus [15], 0.18 mm; in the data set with Rattus norvegicus [16], 40.25%; in the data set with Rattus norvegicus [18], 1172.9 ng/mL; in the data set on Rattus norvegicus [19], 0.138 mm. In addition, in data set [2], the logP at 24 h was 1.34. Further, the result in the data set on Rattus norvegicus [17] was inactive.
